# Results as given in ChEMBL document CHEMBL1201862, “PubChem BioAssay data set” (2004).
#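 Each compound was tested at five concentrations against cells in 96-well plates for 48 hours. GI50: concentration for 50% inhibition of growth.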 Activity calls are given as the source filed them. Cut-off read from the data, not from the text of the source: active = GI50 up to about 1.1 µM and inactive = higher.
# How the values were obtained:
# Assay in all cases: DTP human tumour cell line panel, 48 h
# KM12 = test system: KM12
# HCT-116 = test system: HCT-116
# A549 = test system: A549
# A498 = test system: A498
# UACC-257 = test system: UACC-257
# OVCAR-5 = test system: OVCAR-5
# SR = test system: SR
# SNB-19 = test system: SNB-19
# DMS-273 = test system: DMS-273
# HCC 2998 = test system: HCC 2998
# COLO 205 = test system: COLO 205
# XF498 = test system: XF498
# NCI-H23 = test system: NCI-H23
# CCRF-CEM = test system: CCRF-CEM
# BT-549 = test system: BT-549
# T47D = test system: T47D
# MCF7 = test system: MCF7
# PC-3 = test system: PC-3
# DU-145 = test system: DU-145
# MDA-MB-231 = test system: MDA-MB-231
SMILES,GI50 (KM12),GI50 (HCT-116),GI50 (A549),GI50 (A498),GI50 (UACC-257),GI50 (OVCAR-5),GI50 (SR),GI50 (SNB-19),GI50 (DMS-273),GI50 (HCC 2998),GI50 (COLO 205),GI50 (XF498),GI50 (NCI-H23),GI50 (CCRF-CEM),GI50 (BT-549),GI50 (T47D),GI50 (MCF7),GI50 (PC-3),GI50 (DU-145),GI50 (MDA-MB-231)
COC12C=C(C)C(CC1)CC2C(=O)O (stereo unspecified),> 100 µM (inactive),> 100 µM (inactive),> 100 µM (inactive),> 100 µM (inactive),> 100 µM (inactive),> 100 µM (inactive),> 100 µM (inactive),> 100 µM (inactive),> 100 µM (inactive),> 100 µM (inactive),> 100 µM (inactive),> 100 µM (inactive),> 100 µM (inactive),> 100 µM (inactive),–,–,–,–,–,–
C=C1C(=O)OC2C[C@H](C)C3CC(=O)C(C)=C3CC12 (stereo partly specified),16 µM (inactive),6.38 µM (inactive),24.5 µM (inactive),19.5 µM (inactive),13.1 µM (inactive),15.1 µM (inactive),5.56 µM (inactive),32.9 µM (inactive),17.1 µM (inactive),15.5 µM (inactive),10.4 µM (inactive),16.5 µM (inactive),13.6 µM (inactive),3.44 µM (inactive),–,–,–,–,–,–
O=C(CCc1cc(-c2ccco2)n(-c2ccc([N+](=O)[O-])cc2[N+](=O)[O-])n1)Nc1ccccc1,> 100 µM (inactive),> 100 µM (inactive),> 100 µM (inactive),> 100 µM (inactive),> 100 µM (inactive),> 100 µM (inactive),> 100 µM (inactive),> 100 µM (inactive),> 100 µM (inactive),> 100 µM (inactive),> 100 µM (inactive),> 100 µM (inactive),> 100 µM (inactive),61 µM (inactive),–,–,–,–,–,–
COc1ccc2c(c1)c(Cc1c(C)n(C)c3ccc(OC)cc13)c(C)n2C,> 100 µM (inactive),> 100 µM (inactive),> 100 µM (inactive),> 100 µM (inactive),> 100 µM (inactive),> 100 µM (inactive),> 100 µM (inactive),> 100 µM (inactive),> 100 µM (inactive),–,> 100 µM (inactive),> 100 µM (inactive),> 100 µM (inactive),> 100 µM (inactive),–,–,–,–,–,–
O=C(CC1Sc2ccccc2NC1=O)Nc1cccc(Cl)c1 (stereo unspecified),–,68.5 µM (inactive),43.8 µM (inactive),28.6 µM (inactive),> 100 µM (inactive),> 100 µM (inactive),34 µM (inactive),46.9 µM (inactive),28.2 µM (inactive),89.3 µM (inactive),–,28 µM (inactive),55.5 µM (inactive),40.4 µM (inactive),–,–,–,–,–,–
O=C(NN1C(=O)C(Cl)C1c1c(O)ccc2ccccc12)c1ccccc1O (stereo unspecified),> 100 µM (inactive),> 100 µM (inactive),> 100 µM (inactive),8.45 µM (inactive),> 100 µM (inactive),–,–,> 100 µM (inactive),> 100 µM (inactive),–,–,> 100 µM (inactive),> 100 µM (inactive),> 100 µM (inactive),–,–,–,–,–,–
COc1ccc(/C(Cl)=C(\C=O)c2ccc([N+](=O)[O-])cc2)cc1,2.4 µM (inactive),–,17.7 µM (inactive),22.4 µM (inactive),10.1 µM (inactive),> 100 µM (inactive),–,18.5 µM (inactive),20 µM (inactive),21 µM (inactive),19.1 µM (inactive),14.8 µM (inactive),14 µM (inactive),4.1 µM (inactive),–,–,–,–,–,–
Cc1cc2c(C)nn(Cc3ccc(Cl)cc3Cl)c2c(C#N)c1C,–,69.7 µM (inactive),86.3 µM (inactive),–,37.8 µM (inactive),> 100 µM (inactive),> 100 µM (inactive),> 100 µM (inactive),> 100 µM (inactive),> 100 µM (inactive),–,29.1 µM (inactive),> 100 µM (inactive),> 100 µM (inactive),–,–,–,–,–,–
CN1CCc2c1nc(-c1ccc(Cl)cc1)c1c2N(C)CC1,3.7 µM (inactive),1.85 µM (inactive),18.3 µM (inactive),19.7 µM (inactive),13.7 µM (inactive),24.1 µM (inactive),–,22.5 µM (inactive),14 µM (inactive),19.4 µM (inactive),2.07 µM (inactive),10.1 µM (inactive),14.8 µM (inactive),12 µM (inactive),–,–,–,–,–,–
CC1=C(O)C(=O)C2C(=O)C1C(C)C2c1ccc(Cl)cc1 (stereo unspecified),> 100 µM (inactive),–,> 100 µM (inactive),> 100 µM (inactive),–,> 100 µM (inactive),> 100 µM (inactive),> 100 µM (inactive),> 100 µM (inactive),> 100 µM (inactive),> 100 µM (inactive),> 100 µM (inactive),> 100 µM (inactive),> 100 µM (inactive),–,–,–,–,–,–
COC(=O)[C@@]1(C(C)CC(=O)O)CCCCC1=O (stereo partly specified),> 100 µM (inactive),> 100 µM (inactive),> 100 µM (inactive),> 100 µM (inactive),> 100 µM (inactive),> 100 µM (inactive),37.8 µM (inactive),> 100 µM (inactive),19.9 µM (inactive),> 100 µM (inactive),50.7 µM (inactive),> 100 µM (inactive),> 100 µM (inactive),> 100 µM (inactive),–,–,–,–,–,–
O=C(CO)CC(=O)C(=O)Nc1cccc(C(F)(F)F)c1,> 100 µM (inactive),> 100 µM (inactive),> 100 µM (inactive),–,> 100 µM (inactive),> 100 µM (inactive),> 100 µM (inactive),> 100 µM (inactive),> 100 µM (inactive),> 100 µM (inactive),> 100 µM (inactive),> 100 µM (inactive),> 100 µM (inactive),–,–,–,–,–,–,–
CC[C@@H](C)[C@@H]1NC(=O)C(C(C)=O)=C1O,15.6 µM (inactive),18.7 µM (inactive),26.4 µM (inactive),24.4 µM (inactive),34.2 µM (inactive),40.7 µM (inactive),14.9 µM (inactive),0.297 µM (active),24.4 µM (inactive),30.8 µM (inactive),17.9 µM (inactive),80.9 µM (inactive),20.1 µM (inactive),5.19 µM (inactive),–,–,–,–,–,–
Nc1nc2[nH]cnc2c(=O)[nH]1,> 100 µM (inactive),> 100 µM (inactive),> 100 µM (inactive),> 100 µM (inactive),> 100 µM (inactive),> 100 µM (inactive),> 100 µM (inactive),–,> 100 µM (inactive),–,> 100 µM (inactive),> 100 µM (inactive),> 100 µM (inactive),> 100 µM (inactive),–,–,–,–,–,–
COC(=O)CCC(=O)Nc1cccc(C(F)(F)F)c1,> 100 µM (inactive),–,> 100 µM (inactive),> 100 µM (inactive),> 100 µM (inactive),> 100 µM (inactive),–,> 100 µM (inactive),> 100 µM (inactive),> 100 µM (inactive),> 100 µM (inactive),> 100 µM (inactive),> 100 µM (inactive),> 100 µM (inactive),–,–,–,–,–,–
CCCC/C=C1\CCC(CN2CCCCC2)C1=O (stereo unspecified),–,17.8 µM (inactive),33.3 µM (inactive),25.7 µM (inactive),24.9 µM (inactive),34.7 µM (inactive),–,31.7 µM (inactive),–,8.67 µM (inactive),12 µM (inactive),2.3 µM (inactive),28.1 µM (inactive),7.73 µM (inactive),> 100 µM (inactive),> 100 µM (inactive),> 100 µM (inactive),> 100 µM (inactive),> 100 µM (inactive),> 100 µM (inactive)
O=c1c2ccccc2[nH]c2c(O)ccc(O)c12,45.1 µM (inactive),20.7 µM (inactive),36.2 µM (inactive),38.3 µM (inactive),18.1 µM (inactive),> 76.9 µM (inactive),7.33 µM (inactive),38.7 µM (inactive),16.6 µM (inactive),> 100 µM (inactive),> 10 µM (inactive),16.8 µM (inactive),27.4 µM (inactive),5.58 µM (inactive),–,–,–,–,–,–
Cc1cc(C)c(C(=O)OC(c2ccccc2)C(c2ccccc2)N2CCOCC2)c(C)c1 (stereo unspecified),> 100 µM (inactive),> 100 µM (inactive),> 100 µM (inactive),> 100 µM (inactive),> 100 µM (inactive),–,–,> 100 µM (inactive),> 100 µM (inactive),> 100 µM (inactive),> 100 µM (inactive),> 100 µM (inactive),> 100 µM (inactive),> 100 µM (inactive),–,–,–,–,–,–
NC1CCC[C@H]1O (stereo partly specified),> 100 µM (inactive),> 100 µM (inactive),> 100 µM (inactive),> 100 µM (inactive),> 100 µM (inactive),–,–,> 100 µM (inactive),> 100 µM (inactive),> 100 µM (inactive),> 100 µM (inactive),> 100 µM (inactive),> 100 µM (inactive),> 100 µM (inactive),–,–,–,–,–,–
O=C1OC(c2ccccc2)=N/C1=C/NC(Cc1c[nH]cn1)C(=O)O (stereo unspecified),–,> 100 µM (inactive),> 100 µM (inactive),> 100 µM (inactive),> 100 µM (inactive),> 100 µM (inactive),> 100 µM (inactive),> 100 µM (inactive),> 100 µM (inactive),> 100 µM (inactive),> 100 µM (inactive),> 100 µM (inactive),> 100 µM (inactive),> 100 µM (inactive),–,–,–,–,–,–
CCCCCC/C=C1\CCC(CN2CCOCC2)C1=O (stereo unspecified),7.64 µM (inactive),14.4 µM (inactive),> 45.1 µM (inactive),18 µM (inactive),15.1 µM (inactive),20.3 µM (inactive),4.31 µM (inactive),18.6 µM (inactive),15.9 µM (inactive),19.2 µM (inactive),17.1 µM (inactive),16.1 µM (inactive),16.9 µM (inactive),3.24 µM (inactive),–,–,–,–,–,–
